How the values were obtained:
ROCK1 = ROCK1 (Homo sapiens, UniProt Q13464); experiment: ROCK1 inhibition, ADP-Glo Kinase Assay
GRK1 = biological target: T1, GRK1 (Homo sapiens, UniProt Q15835); experiment: GRK1 kinase inhibition
T1 sequence (Q15835 1-563): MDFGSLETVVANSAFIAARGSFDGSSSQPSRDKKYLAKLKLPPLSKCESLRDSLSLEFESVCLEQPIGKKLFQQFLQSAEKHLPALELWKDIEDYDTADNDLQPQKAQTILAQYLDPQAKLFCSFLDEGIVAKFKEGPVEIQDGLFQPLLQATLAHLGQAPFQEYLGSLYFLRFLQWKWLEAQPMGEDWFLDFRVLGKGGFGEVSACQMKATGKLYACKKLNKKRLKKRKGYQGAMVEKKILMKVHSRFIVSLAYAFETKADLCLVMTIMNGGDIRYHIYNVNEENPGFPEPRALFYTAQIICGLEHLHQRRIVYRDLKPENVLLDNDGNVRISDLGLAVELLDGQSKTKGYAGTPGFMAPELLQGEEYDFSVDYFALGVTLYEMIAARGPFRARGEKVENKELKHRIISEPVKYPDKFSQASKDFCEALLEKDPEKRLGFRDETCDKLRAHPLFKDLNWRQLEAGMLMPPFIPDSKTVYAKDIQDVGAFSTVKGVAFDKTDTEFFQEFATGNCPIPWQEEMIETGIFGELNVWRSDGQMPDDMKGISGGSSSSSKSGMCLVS

PKA = PKA (Homo sapiens, UniProt P17612); experiment: PKA inhibition, ADP-Glo Kinase Assay
GRK5 = GRK5 (Homo sapiens, UniProt P34947); experiment: GRK5 kinase inhibition
[1] = test system: cardiomyocytes isolated from adult mice; experiment: Contractility in mouse cardiomyocytes; details: compared with lead 2; isoproterenol stimulation

ROCK1, sequence (Q13464 whole entry, species assumed): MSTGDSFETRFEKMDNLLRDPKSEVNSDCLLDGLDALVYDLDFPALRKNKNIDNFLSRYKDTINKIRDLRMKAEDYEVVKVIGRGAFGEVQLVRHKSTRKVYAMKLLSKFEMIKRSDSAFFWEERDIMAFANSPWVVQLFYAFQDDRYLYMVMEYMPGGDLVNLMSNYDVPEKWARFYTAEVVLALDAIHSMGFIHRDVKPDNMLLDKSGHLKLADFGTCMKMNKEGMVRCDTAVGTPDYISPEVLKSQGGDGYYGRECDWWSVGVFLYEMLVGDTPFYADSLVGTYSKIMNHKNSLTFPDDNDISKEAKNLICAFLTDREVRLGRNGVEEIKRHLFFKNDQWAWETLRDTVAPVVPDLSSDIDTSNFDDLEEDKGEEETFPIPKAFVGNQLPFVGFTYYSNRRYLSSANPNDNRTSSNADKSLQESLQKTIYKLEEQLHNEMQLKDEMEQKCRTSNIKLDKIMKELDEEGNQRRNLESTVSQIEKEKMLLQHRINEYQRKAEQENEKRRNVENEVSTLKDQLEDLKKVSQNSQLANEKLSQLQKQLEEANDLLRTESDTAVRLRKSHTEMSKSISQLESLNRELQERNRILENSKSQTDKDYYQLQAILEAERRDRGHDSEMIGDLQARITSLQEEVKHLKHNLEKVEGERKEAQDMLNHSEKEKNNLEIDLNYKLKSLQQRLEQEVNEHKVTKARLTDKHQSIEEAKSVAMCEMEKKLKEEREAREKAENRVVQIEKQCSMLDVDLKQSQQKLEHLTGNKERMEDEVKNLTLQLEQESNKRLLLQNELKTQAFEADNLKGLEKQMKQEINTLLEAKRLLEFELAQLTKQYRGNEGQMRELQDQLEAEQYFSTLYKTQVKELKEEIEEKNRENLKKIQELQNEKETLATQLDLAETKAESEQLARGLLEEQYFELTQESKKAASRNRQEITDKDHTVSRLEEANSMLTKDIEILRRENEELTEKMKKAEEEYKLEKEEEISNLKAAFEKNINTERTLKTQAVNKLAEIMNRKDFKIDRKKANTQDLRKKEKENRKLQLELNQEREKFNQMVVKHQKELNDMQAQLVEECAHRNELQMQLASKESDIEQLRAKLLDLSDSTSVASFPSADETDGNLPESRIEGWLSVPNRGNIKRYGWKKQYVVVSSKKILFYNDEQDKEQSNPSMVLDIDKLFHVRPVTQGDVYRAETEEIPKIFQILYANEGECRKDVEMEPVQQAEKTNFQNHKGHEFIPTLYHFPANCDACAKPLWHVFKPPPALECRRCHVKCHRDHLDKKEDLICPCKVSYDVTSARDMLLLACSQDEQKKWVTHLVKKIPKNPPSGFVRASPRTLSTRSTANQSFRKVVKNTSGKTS
GRK5, sequence (P34947 whole entry, species assumed): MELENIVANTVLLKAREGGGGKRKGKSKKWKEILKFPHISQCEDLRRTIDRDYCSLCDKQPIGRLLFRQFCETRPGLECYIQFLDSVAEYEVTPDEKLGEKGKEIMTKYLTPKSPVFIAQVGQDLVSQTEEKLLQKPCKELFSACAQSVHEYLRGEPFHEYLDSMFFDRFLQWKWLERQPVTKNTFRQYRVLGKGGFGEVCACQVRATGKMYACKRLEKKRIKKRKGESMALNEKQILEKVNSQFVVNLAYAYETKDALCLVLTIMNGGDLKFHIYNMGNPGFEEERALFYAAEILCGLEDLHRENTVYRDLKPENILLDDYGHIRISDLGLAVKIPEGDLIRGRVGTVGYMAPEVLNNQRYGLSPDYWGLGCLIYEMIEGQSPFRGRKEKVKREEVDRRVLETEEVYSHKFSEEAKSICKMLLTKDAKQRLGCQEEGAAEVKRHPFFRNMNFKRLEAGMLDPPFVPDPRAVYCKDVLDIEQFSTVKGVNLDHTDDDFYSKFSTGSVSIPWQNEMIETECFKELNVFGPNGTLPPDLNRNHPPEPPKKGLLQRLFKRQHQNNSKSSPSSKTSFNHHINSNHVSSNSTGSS

IC50 (ROCK1) [µM]	increase in GRK1 potency in comparison to 12h (GRK1) [fold]	selectivity for GRK2 over GRK1 (GRK1)	selectivity for GRK2 over GRK5 (GRK5)	SMILES	IC50 (PKA) [µM]	decrease in potency at ROCK1 compared to 12e (ROCK1)	inhibition of ROCK1 (ROCK1)	decrease in potency at GRK1 compared to 12e (GRK1) [fold]	decrease in potency at GRK5 compared to 12e (GRK5) [fold]	potency at stimulating cardiomyocyte contraction [1]
~0.01	50	–	–	CC1=C(C(=O)Nc2ccc3[nH]ncc3c2)C(c2ccc(F)c(C(=O)NCc3nccc4ccccc34)c2)NC(=O)N1 (centres unmarked) [Compound 12k, 4-(4-Fluoro-3-((isoquinolin-1-ylmethyl)carbamoyl)phenyl)-N-(1H-indazol-5-yl)-6-methyl-2-oxo-1,2,3,4-tetrahydropyrimidine-5-carboxamide]	–	–	–	–	–	–
–	–	over 770 fold	over 770 fold	CC1=C(C(=O)Nc2ccc3[nH]ncc3c2)C(c2ccc(F)c(C(=O)NCc3c(Cl)cccc3Cl)c2)NC(=O)N1 (centres unmarked) [Compound 12l, 4-(3-((2,6-Dichlorobenzyl)carbamoyl)-4-fluorophenyl)-N-(1H-indazol-5-yl)-6-methyl-2-oxo-1,2,3,4-tetrahydropyrimidine-5-carboxamide]	> 100	–	–	–	–	–
–	–	–	–	COc1cccc(OC)c1CNC(=O)c1cc(C2NC(=O)NC(C)=C2C(=O)Nc2ccc3[nH]ncc3c2)ccc1F (centres unmarked) [Compound 12n, 4-(3-((2,6-Dimethoxybenzyl)carbamoyl)-4-fluorophenyl)-N-(1H-indazol-5-yl)-6-methyl-2-oxo-1,2,3,4-tetrahydropyrimidine-5-carboxamide]	> 100	over 175 fold	no detectable inhibition	6	43	equivalent to or slightly more potent than the lead 2

Source: publication PMC4890168 (Journal of medicinal chemistry, 2016)
